Test results: patent US20030092603A1, “Identification of specific modulators of bone formation” (priority 2001, published 2003)
Peptide text beside a SMILES is read from it. * marks the point of attachment. Cbz = O=C(OCc1ccccc1)*

Key:
[1] = system: Smad1; experiment: Smurf1-induced Smad1 degradation in C2C12 cells transfected with Smad1 and Smurf1; type: cell-based; details: 24 h
Procedure: Effects of proteasome inhibitors on steady-state levels of Smad1 protein were examined in C2C12 cells. C2C12 cells were plated in 6-well culture plates at density of 2×10^5 cells/well and cultured with DMEM supplemented with 10% FCS for 24 h. The cells were then transfected with Smad1 and Smurf1 expression plasmids. 24 h after transfection, the cells were treated with different proteasome inhibitors at different concentrations and incubated for additional 24 h.

[2] = system: endogenous Smad1; experiment: Steady-state levels of endogenous Smad1 in C2C12 cells, Western blot; type: cell-based; details: 24 hours, vs control
Procedure: To determine the effects of proteasome inhibitors on the steady-state levels of endogenous Smad1 protein, C2C12 cells were plated in 6-well culture plates (2×10^5 cells/well) and cultured with DMEM supplemented with 10% FCS. 24 h later, proteasome inhibitors lactacystin (10 μM), MG-132 (2.5 and 5 μM), PS-1 (25 and 50 nM) were added into C2C12 cells. The cells were cultured with the proteasome inhibitors for 24 hours and then the cell lysates were extracted. The steady-state levels of endogenous Smad1 were analyzed by Western blot using Smad1 antibody (Santa Cruz).

[3] = system: murine BMP-2 promoter (−2712/+165); experiment: BMP-2 promoter-luciferase assay in stably transfected 2T3 cells; type: cell-based
Procedure: (§1) 2T3 murine osteoblast precursor cells and MG-63 human osteoblastic cells were cultured with α minimal essential medium (αMEM) supplemented with 10% fetal calf serum (FCS).
The cells were plated in 96-well culture plates and cultured for 24 h. The cells were then treated with different proteasome inhibitors or other compounds for additional 24 h. The cell lysates were extracted and luciferase activities were measured by a luciferase assay kit (Promega, Madison, Wis.) using a Luminometer.

[4] = system: BMP-2 mRNA; experiment: BMP-2 mRNA expression, Northern blot, MG-63 cells; type: cell-based; details: cultured human MG-63 osteoblastic cells
Procedure: as §1
(§2) MG-63 cells were plated in T-150 flasks at density of 2×10^6 cells per flask for RNA extraction. Total RNA was extracted from MG-63 cells using RNAzol B method (Tel-test Inc., Houston, Tex.). Enrichment of polyadenylated RNA was obtained using Stratagene oligo(dT) cellulose columns (Stratagene, San Diego, Calif.). 5 μg of poly (A^+) RNA was denatured in 2.2 M formaldehyde and 50% fornamide and run on an 1% agarose gel containing 2.2 M formaldehyde. The gels were transferred to a Nytran filter (Schleicher and Schuell, Keene, N.H.) by capillary blotting with 20× SSC (1× SSC=150 mM NaCl, 15 mM Na Citrate, pH 7.0). The RNA was then cross-linked to the filter by UV irradiation (Stratalink, Stratagene, San Diego, Calif.). Prehybridization was carried out at 56° C. in 5× SSC containing 50% formamide and 150 μg/ml of denatured salmon sperm DNA. After 1-2 h prehybridization, the DNA probes were added to the hybridization solution at a concentration of 5×10^5 cpm/ml. Hybridization was carried out for 15 h at 56° C. […] The filters were dried at room temperature, exposed at −70° C. overnight and then quantitated in cpm using an AMBIS Image Acquisition and Analysis System (AMBIS, San Diego, Calif.).

[5] = system: BMP-4 mRNA; experiment: BMP-4 mRNA expression, MG-63 cells; type: cell-based; details: cultured human MG-63 osteoblastic cells
Procedure: as §1, §2

[6] = system: BMP-2 protein; experiment: BMP-2 protein production by ELISA, MG-63 cell lysates; type: cell-based; details: cultured human MG-63 osteoblastic cells, 24 h
Procedure: MG-63 cells were plated in 12-well culture plates at the density of 2.5×10^5 cells/well and cultured with αMEM supplemented with 10% FCS for 24 h. The cells were treated with the proteasome inhibitors epoxomicin and PSI for 24 h. After incubation, the cell lysates were extracted with 150 μl lysis buffer (50 mM TrisHCl pH 8.0, 150 mM NaCl, 1% NP40) with protease inhibitors. The lysates were used to measure the BMP-2 protein production by ELISA.
For protein production, 96-well Dynatech white plates were coated with mouse anti-hBMP-2 monoclonal antibody (raised against rhBMP-2) at 1 μg/ml in PBS (100 μl/well) and incubated overnight at 4° C. The following procedures were performed at room temperature. The plates were washed 3 times with 300 μl of PBS-T wash buffer (PBS and 0.05% Tween) and then blocked with 300 μl 0.2% I-Block solution (0.2% I-Block in PBS-T, Applied Biosystems) for 2 h. 100 μl cell lysates were then added and incubated with coated antibody for 2 h. […] After 3 time washing with wash buffer and 3 time washing with assay buffer, the plates were incubated with 100 μl Tropix enzyme substrate (Applied Biosystems) in dark for 10 min and then read light emission with a Luminometer. rhBMP-2 (R&D) was used to generate the standard curve.

[7] = system: neonatal murine calvarial bones; experiment: Organ culture of neonatal murine calvarial bones, bone formation; type: cell-based, ICR Swiss mice; details: for effect on osteoblast differentiation and bone formation after transfection of trGli3: calvariae transfected with trGli3, epoxomicin 20 nM, 3 days, histology
Procedure: Organ cultures of neonatal murine calvarial bones were used as described by Traianedes, K., et al., Endocrinology (1998) 139:3178-3184. Bones were removed from the calvaria of 4-5 day old ICR Swiss mice and cultured in BGJ medium with 0.1% BSA for 72 hours together with test compounds. Mouse noggin/FC chimera was purchased from R&D Systems, Stillwater, Minn., and added at 2 μg/ml.
Neonatal murine calvariae were transfected with either empty vector or truncated Gli3 (trGli3) using lipofectamine plus reagents for the first 24 hours and then treated with epoxomicin (20 nM) for the remaining 3 days of the assay according to Traianedes, et al., 1998 (supra).

[8] = system: Gli3; experiment: Gli3 processing in 293 cells transfected with Flag-Gli3, Western blot; type: cell-based, human; details: for band of short form Gli3^85: FIG. 2a
Procedure: (§3) Full-length human Gli3 expression plasmid (pact-Flag-Gli3) was kindly provided by Dr. Shunsuke Ishii (Dai, P., et al., J. Biol. Chem. (1999) 274:8143-8152). The molecular weights for expressed Gli3 proteins by transfection of full-length Gli3 cDNA is about 190 kd (Gli3^190) and the processed form of Gli3 is about 85 kd (Gli3^85).
293 cells were plated in 6-well culture plates and cultured with Dulbecco's modified Eagle's medium (DMEM, Sigma). 24 hours after plating, the cells were transiently transfected with Flag-Gli3 cDNA (1 μg/well) and treated with 3-isobutyl-1-methylxanthine (IBMX, 200 μM) in the presence or absence of 1, 10 and 100 nM epoxomicin or PS-1. The steady-state protein levels of Gli3 precursor protein (Gli3^190) or processed form of Gli3 (Gli3^85) were detected by Western blot using anti-Flag antibody.

[9] = system: Gli3 precursor protein (Gli3^190); experiment: Gli3 precursor (Gli3^190) degradation in C3H10T1/2 cells, Western blot; type: cell-based, mouse; details: IBMX 200 μM
Procedure: as §3
C3H10T1/2 multipotent progenitor cells were cultured with RPMI […] medium. The medium was purchased from Sigma (St. Louis, Mo.) and supplemented with 10% fetal calf serum (FCS). C3H10T1/2 cells were plated in 6-well culture plates at the density of 2×10^5 cells/well and transfected with Flag-Gli3 (2 μg/well) and treated with IBMX (200 μM) in the presence or absence of 10 and 20 nM of epoxomicin. Gli3^190 protein expression was detected by Western blot using anti-Flag antibody.

[10] = noggin 2 μg/ml, 72 hours culture

CC(C)C[C@@H](C=O)NC(=O)[C@H](CC(C)C)NC(=O)[C@H](CC(C)C)NC(=O)OCc1ccccc1 [MG-132] (Cbz-Leu-Leu-Leu-aldehyde)
Smurf1-induced Smad1 degradation ([1]; C2C12 cells, 5 μM): partially or completely reversed
increase of endogenous Smad1 protein level ([2]; 5 μM): 6.5 fold

CC[C@H](C)[C@H](NC(=O)[C@H]([C@@H](C)CC)N(C)C(C)=O)C(=O)N[C@H](C(=O)N[C@@H](CC(C)C)C(=O)[C@@]1(C)CO1)[C@@H](C)O [epoxomicin]
potency as stimulators of BMP-2 expression compared with the statins [3]: considerably more potent
luciferase activity (BMP-2 promoter) ([3]; treated 24 h): increased
BMP-2 mRNA expression [4]: increased
expression of BMP-4 mRNA [5]: no effect
BMP-2 protein expression [6]: increased
bone formation in calvarial cultures ([7]; 72 hours culture): bone stimulating effects
effect on osteoblast differentiation and bone formation after transfection of trGli3 [7]: impaired markedly
band of short form Gli3^85 ([8]; 1 nM epoxomicin): substantially reduced
band of short form Gli3^85 ([8]; 10 nM epoxomicin): abolished
Gli3 processing to its processed shorter form ([8]; IBMX 200 μM): impaired
degradation of Gli3 precursor protein (Gli3^190) [9]: prevent the degradation
Smurf1-induced Smad1 degradation ([1]; C2C12 cells, 10, 20 and 40 nM, FIG. 5c): partially or completely reversed

CC(=O)N[C@@H](CSC(=O)[C@]1([C@@H](O)C(C)C)NC(=O)[C@H](C)[C@@H]1O)C(=O)O [lactacystin]
Smurf1-induced Smad1 degradation ([1]; C2C12 cells, 10 μM): partially or completely reversed
increase of endogenous Smad1 protein level ([2]; 10 μM): 3.7 fold

aFGF: acidic fibroblast growth factor, unrelated anabolic agent
bone formation in calvarial cultures ([7]; 72 hours culture): bone formation stimulated
effect on osteoblast differentiation and bone formation after transfection of trGli3 [7]: no effect

noggin
effect of noggin on bone formation stimulated by aFGF [7, 10]: no effect
effect of noggin on bone stimulating effect of BMP-2 [7, 10]: inhibited
effect of noggin on bone stimulating effect of PS-1 [7, 10]: inhibited
effect of noggin on bone stimulating effect of epoxomicin [7, 10]: inhibited
